Measurements published in US9200006B2, “Protease inhibitors” (MEDIVIR AB, priority 2008, dated 2015).

Columns and labels:
[1] = In vivo mouse PK, oral administration (FIG. 1); design: species or system male C57Bl mice; details: orally administered, 60 μmol/kg in 1% Methocel A4C vehicle
From the text: Various embodiments of the invention will now be described by way of illustration only with reference to the following Examples and FIG. 1 which depicts plasma concentration against time for male C57Bl mice orally administered a compound of the invention or a compound of the prior art.

[2] = reference markers for the permeability assay; cited from earlier work
[3] = Metabolic stability in whole blood; format: in vitro ADME; details: worked out from whole blood CLint
Procedure: Compounds of the invention and the indicated comparative examples were tested for metabolic stability in a cytosol assay in which the compounds were incubated with commercially available human hepatic cytosol fractions and the disappearance of the compound monitored by HPLC or LC/MS. Pooled human liver cytosol fractions are less likely to represent outlier individuals than blood from a single individual and can be stored frozen, unlike whole blood. The cytosol assay thus provides a consistent assay testbed as a guide to the stability of a compound in the in vivo environment, such as when exposed to whole blood.
In short, test compounds (2 μM) are incubated in pooled human liver cytosol (Xenotech LLC Lenexa US, 1 mg/mL protein in 0.1 M phosphate buffer, pH 7.4) at 37° centigrade over a one hour period. The incubations are initiated by the addition of 1 mM NADPH co-factor. Timed sub-samples were taken at 0, 20, 40 and 60 minutes and “crash precipitated” by the addition of 3 volumes of ice-cold acetonitrile. The samples were centrifuged at reduced temperature and the supernatants were separated and analyzed by LC-MS-MS.
Alternatively, an analogous stability assay is carried out in human or monkey whole blood and/or commercially available liver microsomes, such as XEN 025.

Row | Structure (SMILES) | % absorption in man [2] | also measured
1 | C#C[C@@H]1CN(C(=O)[C@H](CC(C)C)NC(=O)c2ccc(-c3nc(N4CCN(C)CC4)sc3F)cc2)[C@@H]2C(=O)CO[C@H]12 [Example 2, N-[1-6-(ethynyl-3-oxo-hexahydro-furo[3,2-b]pyrrole-4-carbonyl)-3-methyl-butyl]-4-[5-fluoro-2-(4-methyl-piperazin-1-yl)thiazol-4-yl]-benzamide] |  | in vivo exposure (Cmax or AUC) compared with the prior art compound [1]: very much greater
2 | N[C@@H](Cc1ccccc1)C(=O)O [L-Phenylalanine] | 100% | 
3 | OC[C@@H](O)[C@@H](O)[C@H](O)[C@H](O)CO [Mannitol] | 16% | 
4 | CN(Cc1cnc2nc(N)nc(N)c2n1)c1ccc(C(=O)N[C@@H](CCC(=O)O)C(=O)O)cc1 [Methotrexate] | 20% | 
5 | CC(C)C[C@H](NC(=O)c1ccc(-c2csc(N3CCN(C)CC3)n2)cc1)C(=O)N1C[C@@H](C)[C@H]2OCC(=O)[C@H]21 [comparative example] |  | estimated / calculated whole blood half life [3]: little over an hour
